Data taken from patent publication US20230263783A1, “CANCER TREATMENT BY COMBINED INHIBITION OF POLO-LIKE KINASE AND MICROTUBULE POLYMERIZATION” (Massachusetts Institute of Technology, priority 2022, published 2023).
Where a SMILES comes first, the peptide text is derived from it. [ ]: non-standard residue; d: D form. The star is where a group is joined. Dolaproine = CO[C@@H]([C@@H]1CCCN1)[C@@H](C)C(=O)O; Dil = CC[C@H](C)[C@H](NC)[C@@H](CC(=O)O)OC; X1 = C[C@@H](N*)[C@@H](O)c1ccccc1; NMeV = CN[C@H](C(=O)O)C(C)C

Assays:
[1] = relative to 2-ME; cited from earlier work
[2] = oral administration; cited from earlier work
[3] = cited from earlier work
[4] = system: Her2+ trastuzumab-resistant breast cancer; details: via CDK1-dependent phosphorylation and inactivation of Bcl-2/xL; cited from earlier work
[5] = system: C4-2 castrate resistant prostate cancer (CRPC) cells; assay: Relative viability after drug dose matrix (CellTiter-Glo, Bliss Independence) in C4-2 cells; type: cell-based; details: for concentrations at which the more than additive reduction occurs / reduction in cancer cell viability of maytansinoid with Plk1 inhibitor versus each alone: C4-2 cells, with onvansertib; for reduction in cancer cell viability of maytansinoid with Plk1 inhibitor versus each alone: five days, free agents, FIGS. 5A and 5B
Procedure: All cell lines were cultured in a humidified incubator at 37° C. and with 5% CO2, were maintained sub-confluent and used for no more than 20 passages. Media was supplemented with 10% fetal bovine serum (FBS), contained 2 mM glutamine and lacked antibiotics, unless otherwise noted. A549, BT-20, CCD-1112sk, CCD-18co, CFPAC1, HCT 116, HeLa, HT-29, HT55, MCF7, MDA-MB-157, MDA-MB-231, MDA-MB-415, MDA-MB-436, MDA-MB-453, MDA-MB-468, SW48, T98G, U-2 OS, U-87 MG, CAOV3, COV362, and JIMT1 cells were grown in DMEM; 22RV1, AU565, C4-2, CAL33, COL0205,HCC38, HCT-15, KYSE150, LNCaP, LOVO, NCI-H1299, PC-3, ZR-75-1, HCC1419, HCC1569, HCC1954, ZR7530, OVCAR-4, OVCAR8 cells were grown in RPMI 1640; HT1197, HT1376, J82, UMUC3 cells were grown in MEM; OV90, TOV122D, TOV21G cells were grown in 1:1 MCDB105:Medial99 15% FBS; 59M, OAW28, OAW42 cells were grown in Advanced DMEM 0.023 IU/ml insulin; ES2, SKOV3 cells were grown in McCoy's 5A; JHOS2, JHOS4 cells were grown in 1:1 DMEM:HamF12; HUVEC cells were grown in EBM with EGM™-2 BULLETKIT™
For dose response experiments and experiments that examine synergy as a measure of change in relative viability, cells were grown in 384-well plates in triplicate. The following day the cells were subjected to a drug dose matrix that consisted of increasing concentrations of a Plk inhibitor, increasing concentrations of a microtubule polymerization inhibitor, and all pairwise combinations. Drugs were dissolved in DMSO and diluted in the appropriate cell growth media while maintaining a constant final concentration of DMSO. After five days, relative viability was assessed using […]-GLO™ (Promega) Luminescent Cell Viability Assay according to the manufacturer's recommendations. Luminescence was measured using an […]™ M200 Pro plate reader (Tecan Group Ltd.). […] The dose response plots (for example FIG. 1A) show sensitivity to increasing concentrations of a microtubule polymerization inhibitor in the absence or presence of a constant amount of Plk inhibitor. Bars represent the standard error of the mean. The concentration of Plk inhibitor chosen to presented was based on a ˜20-30% reduction of viability when that drug was used at that dose in isolation. The entire amount of greater-than-additive response observed in the dose matrix is the integrated volume between the observed and expected surfaces generated by the response matrix and is also known as Bliss Volume. Bliss Volume synergy metrics are presented in FIG. 3 as the fractional change in volume between the expected and observed response surfaces.

[6] = system: panel of >50 other kinases; details: in vitro; cited from earlier work
[7] = system: HCT116, NCI-H460, and taxane-resistant CXB1 colon carcinoma xenografts; design: dose or concentration left out as unconfirmed; details: cited from earlier work
[8] = system: growth factor activated endothelial cells; details: cited from earlier work
[9] = system: Her2+ breast cancer cell lines; assay: Viability dose matrix in panel of six Her2+ breast cancer cell lines; type: cell-based; details: DM1 with onvansertib, five days, majority of six cell lines, FIGS. 8A-8F
Procedure: (§1) All cell lines were cultured in a humidified incubator at 37° C. and with 5% CO2, were maintained sub-confluent and used for no more than 20 passages. Media was supplemented with 10% fetal bovine serum (FBS), contained 2 mM glutamine and lacked antibiotics, unless otherwise noted. […]
(§2) For dose response experiments and experiments that examine synergy as a measure of change in relative viability, cells were grown in 384-well plates in triplicate. […] After five days, relative viability was assessed using […]-GLO™ (Promega) Luminescent Cell Viability Assay according to the manufacturer's recommendations. Luminescence was measured using an […]™ M200 Pro plate reader (Tecan Group Ltd.). […]

[10] = system: ovarian cancer cell lines; assay: Viability dose matrix in panel of 14 ovarian cancer cell lines; type: cell-based; details: DM4 with onvansertib, five days, FIGS. 6A-6N
Procedure: as §1, §2

UMUC3 = assay: Viability dose matrix in UMUC3 bladder cancer cells; type: cell-based; details: MMAE with onvansertib, five days, FIG. 7D
Procedure: as §1, §2

[11] = system: bladder cancer cell lines; assay: Viability dose matrix in panel of four bladder cancer cell lines; type: cell-based; details: MMAE with onvansertib, five days, FIGS. 7A-7D
Procedure: as §1, §2

T47D cells [12] = details: read-out: GI50, cell proliferation; cited from earlier work
T47D cells [13] = details: read-out: EC50 for caspase activation; cited from earlier work
[14] = system: variety of tumors, including those that express the multidrug resistance (MDR) phenotype; details: read-out: IC50 against a variety of tumors; cited from earlier work

Structure (SMILES): COc1cc2c(cc1O)CC[C@@H]1[C@@H]2CC[C@]2(C)C(=O)CC[C@@H]12 [2-methoxyestrone]
- loss in activity in vitro on oxidation of 2-ME to 2-methoxyestrone [1]: 10-to 100 fold

Structure (SMILES): COc1ccc(S(=O)(=O)Nc2cccnc2Nc2ccc(O)cc2)cc1 [ABT-751]
- overall mean Tmax [2]: about 2 h
- maximum tolerated dose ([3]; daily schedule, phase I): 250 mg/day

Structure (SMILES): CC[C@@H]1C(=O)N(C)c2cnc(Nc3ccc(C(=O)N[C@H]4CC[C@H](N5CCN(CC6CC6)CC5)CC4)cc3OC)nc2N1C(C)C [BI6727]
- recommended dose for further development ([3]; advanced solid tumors, i.v. once every 3 weeks, based on overall tolerability): 300 mg
- MTD ([3]; advanced solid tumors, i.v. once every 3 weeks): 400 mg
- MTD in combination with afatinib ([3]; advanced solid tumors): 300 mg
- effect on T-DM1 resistance [4]: overcomes T-DM1 resistance
- effect of the combination of TH588 with a Plk1 inhibitor ([5]; each Plk1 inhibitor in combination with TH588, relative viability): more than additive
- inhibitory activity against a panel of >50 other kinases [6]: no inhibitory activity
- growth of human carcinoma xenografts [7]: significantly inhibits the growth

Structure (SMILES): COc1cc(C(=O)c2c(C)oc3c(O)c(OC)ccc23)cc(OC)c1OC [BNC-105]
- selectivity for growth factor activated endothelial cells compared to quiescent HUVECs [8]: 81 fold

Structure (SMILES): COc1cc2cc(c1Cl)N(C)C(=O)C[C@H](OC(=O)[C@H](C)N(C)C(=O)CCS)C1(C)O[C@H]1[C@H](C)[C@@H]1C[C@@](O)(NC(=O)O1)[C@H](OC)/C=C/C=C(\C)C2 (stereo partly shown) [DM1]
- concentrations at which the more than additive reduction occurs [5]: sub-nanomolar
- reduction in cancer cell viability of maytansinoid with Plk1 inhibitor versus each alone [5]: more than the additive reduction
- response to combined Plk1 inhibitor and DM1 [9]: greater than additive response

Structure (SMILES): COc1cc2cc(c1Cl)N(C)C(=O)C[C@H](OC(=O)[C@H](C)N(C)C(=O)CCC(C)(C)S)C1(C)O[C@H]1[C@H](C)[C@@H]1C[C@@](O)(NC(=O)O1)[C@H](OC)/C=C/C=C(\C)C2 (stereo partly shown) [DM4]
- concentrations at which the more than additive reduction occurs [5]: sub-nanomolar
- reduction in cancer cell viability of maytansinoid with Plk1 inhibitor versus each alone [5]: more than the additive reduction
- cell lines with greater than additive responses to the drug combination [10]: Ten of fourteen

Structure (SMILES): CC[C@H](C)[C@@H]([C@@H](CC(=O)N1CCC[C@H]1[C@H](OC)[C@@H](C)C(=O)N[C@H](C)[C@@H](O)c1ccccc1)OC)N(C)C(=O)[C@@H](NC(=O)[C@@H](NC)C(C)C)C(C)C [MMAE, monomethyl auristatin E] (H-[NMeV]V[Dil][Dolaproine]-X1)
- response to the combination in UMUC3 (UMUC3): very notable response
- response to the combination in bladder cancer cell lines [11]: Varying amounts of greater than additive responses

Structure (SMILES): COc1ccc(N(C)c2nc(Cl)nc3ccccc23)cc1 [MPI-0441138]
- GI50 (T47D cells [12]): 2 nM
- EC50 (T47D cells [13]): 2 nM

Structure (SMILES): COc1ccc(NS(=O)(=O)c2c(F)c(F)c(F)c(F)c2F)cc1F [T138067]
- IC50 [14]: 11 to 165 nM
